# Data from ChEMBL document CHEMBL2169778, “Small molecule inhibitors of signal transducer and activator of transcription 3 (Stat3) protein” (J Med Chem, 2012).
# Where a SMILES comes first, the peptide text is derived from it. [ ]: non-standard residue; d: D form. The star is where a group is joined. Pro(3S,4R-methano) = O=C(O)[C@H]1NC[C@@H]2C[C@@H]21; pY = N[C@@H](Cc1ccc(OP(=O)(O)O)cc1)C(=O)O; Hydrocinnamoyl = O=C(CCc1ccccc1)*; NHBn = c1ccc(CN*)cc1
# What was measured:
# [1] = biological target: T1, Signal transducer and activator of transcription 3 (Mus musculus, UniProt P42227); test: Inhibition of STAT3 dimerization in v-Src transformed mouse NIH/3T3 cells overexpressing human EGFR assessed as suppression of STAT3-DNA interaction in nucleus after 30 mins by EMSA; assay type: cell-based, NIH3T3
# T1 sequence (P42227 whole entry): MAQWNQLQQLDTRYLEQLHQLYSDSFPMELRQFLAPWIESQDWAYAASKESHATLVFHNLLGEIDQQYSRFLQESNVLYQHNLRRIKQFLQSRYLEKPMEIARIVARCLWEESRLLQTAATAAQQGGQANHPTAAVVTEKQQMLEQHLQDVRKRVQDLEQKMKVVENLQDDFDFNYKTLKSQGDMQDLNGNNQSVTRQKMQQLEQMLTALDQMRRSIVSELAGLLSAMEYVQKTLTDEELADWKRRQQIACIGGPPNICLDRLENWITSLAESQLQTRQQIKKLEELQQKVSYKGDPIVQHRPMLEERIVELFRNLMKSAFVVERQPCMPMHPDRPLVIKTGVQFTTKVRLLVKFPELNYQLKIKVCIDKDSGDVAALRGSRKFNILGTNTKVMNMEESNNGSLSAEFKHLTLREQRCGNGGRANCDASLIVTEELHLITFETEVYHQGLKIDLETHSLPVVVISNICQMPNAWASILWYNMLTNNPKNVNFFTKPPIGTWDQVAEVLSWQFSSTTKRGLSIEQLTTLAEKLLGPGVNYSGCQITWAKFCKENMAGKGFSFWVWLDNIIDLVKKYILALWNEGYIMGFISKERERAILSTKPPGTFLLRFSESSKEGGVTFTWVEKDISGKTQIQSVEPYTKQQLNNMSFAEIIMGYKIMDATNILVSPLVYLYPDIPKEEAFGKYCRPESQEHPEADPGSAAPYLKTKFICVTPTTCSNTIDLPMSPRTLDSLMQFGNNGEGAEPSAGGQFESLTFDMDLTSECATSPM
# HepG2 = test: Cytotoxicity against human HepG2 cells with intact TGFbeta pathway assessed as growth inhibition at 250 uM after 72 hrs by MTT assay; assay type: functional; details: HepG2, 72 h, read-out: GI
# [2] = Cytotoxicity against human SNU182 cells with impaired TGFbeta pathway assessed as growth inhibition at 250 uM after 72 hrs by MTT assay; assay type: functional, cell-based; details: SNU-182
# [3] = Cytotoxicity against human PLC/PRF/5 cells with intact TGFbeta pathway assessed as growth inhibition at 250 uM after 72 hrs by MTT assay; assay type: functional, cell-based
# SNU-475 = test: Cytotoxicity against human SNU475 cells with impaired TGFbeta pathway assessed as growth inhibition at 250 uM after 72 hrs by MTT assay; assay type: functional; details: SNU-475, 72 h, read-out: GI
# SNU-398 = test: Cytotoxicity against human SNU398 cells with impaired TGFbeta pathway assessed as growth inhibition at 250 uM after 72 hrs by MTT assay; assay type: functional; details: SNU-398, 72 h, read-out: GI
# SNU-449 = test: Cytotoxicity against human SNU449 cells with intact TGFbeta pathway assessed as growth inhibition at 250 uM after 72 hrs by MTT assay; assay type: functional; details: SNU-449, 72 h, read-out: GI
# Huh-7 = test: Cytotoxicity against human HuH7 cells with impaired TGFbeta pathway assessed as growth inhibition at 250 uM after 72 hrs by MTT assay; assay type: functional; details: Huh-7, 72 h, read-out: GI
# [4] = biological target: T2, Signal transducer and activator of transcription 3 (Homo sapiens, UniProt P40763); test: Inhibition of STAT3 SH2 domain assessed as inhibition of STAT3 SH2-phosphotyrosine interaction after 15 mins by fluorescence polarization assay
# T2 sequence (P40763 whole entry, the tested form may be a part): as the sequence (P42227 whole entry) above, with D760E counted along it
# [5] = biological target: T2, Signal transducer and activator of transcription 3; test: Inhibition of IL6-mediated STAT3 phosphorylation in human HepG2 cells preincubated for 1 hr prior to IL6 challenge measured after 30 mins by immunoblot analysis; assay type: cell-based
# [6] = biological target: T2, Signal transducer and activator of transcription 3; test: Inhibition of recombinant STAT3 assessed as inhibition of STAT3-phosphododecapeptide interaction by SPR analysis
# [7] = biological target: T3, Signal transducer and activator of transcription 1-alpha/beta (Homo sapiens, UniProt P42224); test: Inhibition of STAT1 SH2 domain assessed as inhibition of STAT1 SH2-phosphotyrosine interaction by AlphaScreen assay
# T3 sequence (P42224 whole entry): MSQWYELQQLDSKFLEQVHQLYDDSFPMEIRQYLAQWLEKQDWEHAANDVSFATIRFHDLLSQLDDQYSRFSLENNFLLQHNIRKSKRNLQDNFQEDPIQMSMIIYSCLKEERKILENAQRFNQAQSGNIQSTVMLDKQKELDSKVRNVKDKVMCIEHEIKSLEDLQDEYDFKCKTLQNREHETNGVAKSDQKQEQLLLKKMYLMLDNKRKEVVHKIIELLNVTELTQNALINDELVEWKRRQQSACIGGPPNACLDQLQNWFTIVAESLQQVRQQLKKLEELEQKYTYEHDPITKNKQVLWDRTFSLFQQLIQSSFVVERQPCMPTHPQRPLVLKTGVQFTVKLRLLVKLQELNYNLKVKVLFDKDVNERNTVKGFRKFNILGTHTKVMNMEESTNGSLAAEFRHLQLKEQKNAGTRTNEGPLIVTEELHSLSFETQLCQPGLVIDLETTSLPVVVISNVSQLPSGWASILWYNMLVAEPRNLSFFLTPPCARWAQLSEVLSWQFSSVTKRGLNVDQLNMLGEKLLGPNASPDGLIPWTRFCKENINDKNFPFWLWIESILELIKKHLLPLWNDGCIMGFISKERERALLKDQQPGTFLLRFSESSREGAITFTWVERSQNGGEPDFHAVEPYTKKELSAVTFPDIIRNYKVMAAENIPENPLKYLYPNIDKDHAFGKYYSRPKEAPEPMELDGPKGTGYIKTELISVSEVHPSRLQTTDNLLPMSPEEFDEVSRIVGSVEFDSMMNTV
# [8] = biological target: T2, Signal transducer and activator of transcription 3; test: Inhibition of STAT3 SH2 domain assessed as inhibition of STAT3 SH2-phosphotyrosine interaction by AlphaScreen assay
# [9] = biological target: T2, Signal transducer and activator of transcription 3; test: Inhibition of STAT3 expressed in human U3A cells after 1 hr by luciferase reporter gene assay; assay type: cell-based
# [10] = biological target: T2, Signal transducer and activator of transcription 3; test: Inhibition of STAT3 in human MDA-MB-435 cells at 20 uM after 48 hrs by luciferase reporter gene assay relative to untreated control; assay type: cell-based
# [11] = Binding affinity to full length STAT3alpha by fluorescence polarization assay
# [12] = biological target: T2, Signal transducer and activator of transcription 3; test: Inhibition of STAT3 SH2 domain using 5-carboxyfluorescein-GY(PO3H2)LPQTV-NH2 as substrate preincubated for 60 mins prior to substrate addition by fluorescence polarization assay
# [13] = biological target: Tyrosine-protein kinase JAK2 (Homo sapiens) (UniProt O60674); details: at 5 µM
# Tyrosine-protein kinase JAK2 (Homo sapiens), sequence (O60674 whole entry, the tested form may be a part): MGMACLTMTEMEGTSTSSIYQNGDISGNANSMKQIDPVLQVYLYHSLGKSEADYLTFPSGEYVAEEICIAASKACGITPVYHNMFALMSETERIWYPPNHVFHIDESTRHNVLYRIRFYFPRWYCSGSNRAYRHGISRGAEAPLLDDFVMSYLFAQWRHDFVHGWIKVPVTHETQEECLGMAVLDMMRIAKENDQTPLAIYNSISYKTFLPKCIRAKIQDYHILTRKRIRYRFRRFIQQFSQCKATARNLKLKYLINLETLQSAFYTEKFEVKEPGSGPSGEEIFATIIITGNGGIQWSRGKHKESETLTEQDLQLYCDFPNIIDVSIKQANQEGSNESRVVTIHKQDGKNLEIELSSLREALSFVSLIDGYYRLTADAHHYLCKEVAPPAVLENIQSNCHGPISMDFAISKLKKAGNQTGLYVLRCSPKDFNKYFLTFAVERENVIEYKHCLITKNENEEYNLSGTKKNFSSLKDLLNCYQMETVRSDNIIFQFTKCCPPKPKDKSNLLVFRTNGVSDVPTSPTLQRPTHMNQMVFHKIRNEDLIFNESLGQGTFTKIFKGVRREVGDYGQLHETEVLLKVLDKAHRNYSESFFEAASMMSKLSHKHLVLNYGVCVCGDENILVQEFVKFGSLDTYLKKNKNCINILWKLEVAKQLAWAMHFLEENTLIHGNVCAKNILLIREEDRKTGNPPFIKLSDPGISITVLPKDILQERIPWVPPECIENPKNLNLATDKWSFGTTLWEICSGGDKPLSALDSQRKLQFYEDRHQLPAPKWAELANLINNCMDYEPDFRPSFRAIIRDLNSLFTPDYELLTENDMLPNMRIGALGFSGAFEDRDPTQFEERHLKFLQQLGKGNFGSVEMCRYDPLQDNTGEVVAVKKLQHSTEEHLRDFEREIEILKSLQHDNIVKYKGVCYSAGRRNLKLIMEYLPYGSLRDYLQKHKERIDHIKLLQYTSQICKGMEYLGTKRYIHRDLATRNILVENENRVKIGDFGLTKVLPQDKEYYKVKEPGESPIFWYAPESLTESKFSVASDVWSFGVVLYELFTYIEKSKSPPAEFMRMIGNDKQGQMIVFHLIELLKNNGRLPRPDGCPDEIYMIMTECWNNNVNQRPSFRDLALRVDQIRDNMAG
# Description: Inhibition of JAK2 at 5 uM by high throughput assay
# [14] = biological target: T3, Signal transducer and activator of transcription 1-alpha/beta; test: Inhibition of STAT1 SH2 domain by fluorescence polarization assay
# NIH3T3 = test: Cytotoxicity against mouse NIH/3T3 cells without constitutively active STAT3 after 24 to 144 hrs by trypan blue-staining based phase contrast microscopy; assay type: cell-based
# [15] = biological target: T1, Signal transducer and activator of transcription 3; test: Binding affinity to STAT3 SH2 in v-Src transformed mouse NIH/3T3 cells overexpressing human EGFR; assay type: cell-based, NIH3T3
# PANC-1 = test: Cytotoxicity against human PANC1 cells harboring constitutively active STAT3 after 24 to 144 hrs by trypan blue-staining based phase contrast microscopy; assay type: functional, cell-based
# [16] = Cytotoxicity against HPDEC without constitutively active STAT3 after 24 to 144 hrs by trypan blue-staining based phase contrast microscopy; details: Homo sapiens
# MDA-MB-231 = test: Cytotoxicity against human MDA-MB-231 cells harboring constitutively active STAT3 after 24 to 144 hrs by trypan blue-staining based phase contrast microscopy; assay type: functional, cell-based
# [17] = Cytotoxicity against mouse TE71 without constitutively active STAT3 after 24 to 144 hrs by trypan blue-staining based phase contrast microscopy
smiles,measurement,setting,value
CCCCCCNC(=O)c1nc(-c2cccc3ccccc23)oc1Cc1ccc(OP(=O)(O)O)cc1,IC50,[1],58 µM
O=C(Nc1ccc(C2CCCCC2)cc1)c1nc(-c2ccccc2)oc1Cc1ccc(OP(=O)(O)O)cc1,IC50,[1],33 µM
Cc1ccc(S(=O)(=O)OCC(=O)Nc2ccc(C(=O)O)c(O)c2)cc1,inhibition of growth at 250 µM,HepG2,20%
same,growth inhibition (GI),[2],80%
same,growth inhibition (GI),[3],20%
same,inhibition of growth at 250 µM,SNU-475,80%
same,inhibition of growth at 250 µM,SNU-398,80%
same,inhibition of growth at 250 µM,SNU-449,20%
same,inhibition of growth at 250 µM,Huh-7,80%
CCCCCCNC(=O)c1nc(-c2cccc3ccccc23)sc1Cc1ccc(OP(=O)(O)O)cc1,IC50,[1],25 µM
Cc1ccc(S(=O)(=O)N(C)CC(=O)N(Cc2ccc(C3CCN(c4ccc(C#N)cc4)CC3)cc2)c2ccc(C(=O)O)c(O)c2)cc1,Ki,[4],18.7 µM
Cc1ccc(S(=O)(=O)OCC(=O)N(Cc2ccc(C3CCCCC3)cc2)c2ccc(C(=O)O)c(O)c2)cc1,Ki,[4],50 µM
O=C(O)c1ccc(/C=C/C(=O)c2ccc3c(c2)OCCO3)cc1,IC50,[5],91 µM
same,IC50,[6],447 µM
C1=Cc2nc1cc1ccc([nH]1)c(-c1ccccc1)c1nc(cc3ccc([nH]3)c2-c2ccccc2)C=C1,IC50,[7],10 µM
same,IC50,[8],0.28 µM
O=C(N/N=C/c1ccc([N+](=O)[O-])o1)c1ccc(O)cc1 [NIFUROXAZIDE],EC50,[9],3 µM
C[C@@H]1CC(=O)c2c(ccc3c2C(=O)c2cccc(O)c2C3=O)C1,fold change (FC),[10],5
COc1cccc(NC(=O)c2nc(-c3ccccc3)sc2Cc2ccc(OP(=O)(O)O)cc2)c1,IC50,[1],28 µM
"CC(C)C[C@H](NC(=O)[C@H](Cc1ccc(OP(=O)(O)O)cc1)NC(=O)CCc1ccccc1)C(=O)N1C[C@@H]2C[C@@H]2[C@H]1C(=O)N[C@@H](CCC(N)=O)C(=O)NCc1ccccc1 (Hydrocinnamoyl-[pY]L[Pro(3S,4R-methano)]Q-NHBn)",Ki,[11],0.125 µM
COc1cccc(NC(=O)c2nc(-c3ccccc3)oc2Cc2ccc(OP(=O)(O)O)cc2)c1,IC50,[1],90 µM
O=[N+]([O-])c1ccc2c(c1)S(=O)(=O)C=C2,IC50,[12],5.1 µM
COc1ccc(/C=C/C(=O)C(C)(C)C(=O)/C=C/c2ccc(OC)c(OC)c2)cc1OC,inhibition,[13],60%
Cc1ccc(S(=O)(=O)N(C)CC(=O)N(Cc2ccc(C3CCCCC3)cc2)c2ccc(C(=O)O)c(O)c2)cc1,Ki,[14],≥ 50 µM
same,IC50,NIH3T3,> 200 µM
same,Kd,[15],2.74 µM
same,IC50,PANC-1,48 µM
same,IC50,[16],> 200 µM
same,IC50,MDA-MB-231,37 µM
same,IC50,[17],> 200 µM
